Laboratory results: patent publication US20100119655A1, “MUSCULAR PROTEIN DENATURATION INHIBITOR, ADDITIVE FOR A FISH MEAT-ORIGIN GROUND MEAT, FISH MEAT-ORIGIN GROUND MEAT CONTAINING THE SAME AND METHOD OF PRODUCING THE SAME” (Nagasaki Prefectural Government, priority 2007, published 2010)

How the values were obtained:
myofibrillar proteins [1] = experiment: Heat denaturation of myofibrillar proteins at 42° C., followed by loss of Ca-ATPase activity (denaturation rate constant KD); assay type: biochemical, carp (Cyprinus carpio); settings: for decline of rate of denaturation of myofibrillar proteins (logarithmic value of denaturation rate constant KD): compound added by 1M, myofibrils heated at 42° C., FIG. 2
From the text: (§1) In this embodiment, determination of the effect of inhibiting denaturation of fish meat-origin muscular proteins employs a method for calculating a rate of denaturation of myosin based on disappearance of Ca-ATPase activity as bioactivity of myosin {Tohru Oizumi et al.: Gyoruikingenseni-no-kanetsuhensei-ni-taisuru-to-oyobi-toarukohru-no-hogokohka-no-teiryokosatsu (Quantitative Examination of Effect of Protecting Sugars and Sugar Alcohols from Heat Denaturation of Fish Myofibril. Journal of the Japanese Society of Fisheries Science, 47, 901-908 (1981)}. Said method in this embodiment will be described as follows by dividing into a method for determining the effect of inhibiting heat denaturation and a method for determining effect of inhibiting freeze denaturation.
(§2) Firstly, a method for determining the effect of inhibiting heat denaturation is described. […] Then, changes in Ca-ATPase activity of the fish meat-origin muscular proteins heated are analyzed according to a first-order reaction equation to calculate a denaturation rate constant (KD). Ca-ATPase activity is measured by preparing a reaction composition liquid composed of 0.5M KCl, 25 mM Tris-maleate (pH 7.0), 5 mM CaCl2, 1 mM ATP and 0.2 to 0.3 mg/ml of fish meat-origin muscular proteins subjected to heating and ice cold and determining free inorganic phosphate quantitatively. Then, denaturation rate constant is calculated from Ca-ATPase activity obtained and heating time. Consequently, if the denaturation rate constant is smaller, the effect of inhibiting denaturation of fish meat-origin muscular proteins is significant, and if the denaturation rate constant is larger, the effect of inhibiting denaturation of fish meat-origin muscular proteins is small.
After 5% perchloric acid was added thereto to stop the reaction and filter the product, free inorganic phosphate was subjected to colorimetric determination by phosphomolybdic acid method to calculate a logarithmic value of denaturation rate constant.

myofibrillar proteins [2] = experiment: Freeze denaturation of myofibrillar proteins, remaining Ca-ATPase activity after cryopreservation at −20° C.; assay type: biochemical, carp (Cyprinus carpio); settings: approximately 1 month, FIG. 3
Description: Next, a method for determining the effect of inhibiting freeze denaturation will be described. […] In this case, a comparison is made not by an absolute value of denaturation rate constant but a relative value thereof. The measurement of Ca-ATPase activity is the same as above.
The myofibrils were taken approximately 1 month later and added to 0.5M KCl, 25 mM Tris-maleate (pH 7.0), 5 mM CaCl2 and 1 mM ATP to prepare a reaction composition liquid to be reacted at 25° C. After 5% perchloric acid was added thereto to stop the reaction and filter the product, free inorganic phosphate was subjected to colorimetric determination by phosphomolybdic acid method to calculate Ca-ATPase activity and analyze the extent of denaturation observed from the decline of Ca-ATPase activity.

myosin = molecular target: T1, myosin (Cyprinus carpio, UniProt Q90339); experiment: Heat denaturation of myosin at 35° C., followed by loss of Ca-ATPase activity (denaturation rate constant KD); assay type: biochemical, carp (Cyprinus carpio); settings: compound added by 1M; myosin heated at 35° C.; FIG. 1
T1 construct: myofibrils were prepared from dorsal meat of carp (Cyprinus carpio); from tissue; host or cells: dorsal muscle of carp
T1 sequence (Q90339 whole entry): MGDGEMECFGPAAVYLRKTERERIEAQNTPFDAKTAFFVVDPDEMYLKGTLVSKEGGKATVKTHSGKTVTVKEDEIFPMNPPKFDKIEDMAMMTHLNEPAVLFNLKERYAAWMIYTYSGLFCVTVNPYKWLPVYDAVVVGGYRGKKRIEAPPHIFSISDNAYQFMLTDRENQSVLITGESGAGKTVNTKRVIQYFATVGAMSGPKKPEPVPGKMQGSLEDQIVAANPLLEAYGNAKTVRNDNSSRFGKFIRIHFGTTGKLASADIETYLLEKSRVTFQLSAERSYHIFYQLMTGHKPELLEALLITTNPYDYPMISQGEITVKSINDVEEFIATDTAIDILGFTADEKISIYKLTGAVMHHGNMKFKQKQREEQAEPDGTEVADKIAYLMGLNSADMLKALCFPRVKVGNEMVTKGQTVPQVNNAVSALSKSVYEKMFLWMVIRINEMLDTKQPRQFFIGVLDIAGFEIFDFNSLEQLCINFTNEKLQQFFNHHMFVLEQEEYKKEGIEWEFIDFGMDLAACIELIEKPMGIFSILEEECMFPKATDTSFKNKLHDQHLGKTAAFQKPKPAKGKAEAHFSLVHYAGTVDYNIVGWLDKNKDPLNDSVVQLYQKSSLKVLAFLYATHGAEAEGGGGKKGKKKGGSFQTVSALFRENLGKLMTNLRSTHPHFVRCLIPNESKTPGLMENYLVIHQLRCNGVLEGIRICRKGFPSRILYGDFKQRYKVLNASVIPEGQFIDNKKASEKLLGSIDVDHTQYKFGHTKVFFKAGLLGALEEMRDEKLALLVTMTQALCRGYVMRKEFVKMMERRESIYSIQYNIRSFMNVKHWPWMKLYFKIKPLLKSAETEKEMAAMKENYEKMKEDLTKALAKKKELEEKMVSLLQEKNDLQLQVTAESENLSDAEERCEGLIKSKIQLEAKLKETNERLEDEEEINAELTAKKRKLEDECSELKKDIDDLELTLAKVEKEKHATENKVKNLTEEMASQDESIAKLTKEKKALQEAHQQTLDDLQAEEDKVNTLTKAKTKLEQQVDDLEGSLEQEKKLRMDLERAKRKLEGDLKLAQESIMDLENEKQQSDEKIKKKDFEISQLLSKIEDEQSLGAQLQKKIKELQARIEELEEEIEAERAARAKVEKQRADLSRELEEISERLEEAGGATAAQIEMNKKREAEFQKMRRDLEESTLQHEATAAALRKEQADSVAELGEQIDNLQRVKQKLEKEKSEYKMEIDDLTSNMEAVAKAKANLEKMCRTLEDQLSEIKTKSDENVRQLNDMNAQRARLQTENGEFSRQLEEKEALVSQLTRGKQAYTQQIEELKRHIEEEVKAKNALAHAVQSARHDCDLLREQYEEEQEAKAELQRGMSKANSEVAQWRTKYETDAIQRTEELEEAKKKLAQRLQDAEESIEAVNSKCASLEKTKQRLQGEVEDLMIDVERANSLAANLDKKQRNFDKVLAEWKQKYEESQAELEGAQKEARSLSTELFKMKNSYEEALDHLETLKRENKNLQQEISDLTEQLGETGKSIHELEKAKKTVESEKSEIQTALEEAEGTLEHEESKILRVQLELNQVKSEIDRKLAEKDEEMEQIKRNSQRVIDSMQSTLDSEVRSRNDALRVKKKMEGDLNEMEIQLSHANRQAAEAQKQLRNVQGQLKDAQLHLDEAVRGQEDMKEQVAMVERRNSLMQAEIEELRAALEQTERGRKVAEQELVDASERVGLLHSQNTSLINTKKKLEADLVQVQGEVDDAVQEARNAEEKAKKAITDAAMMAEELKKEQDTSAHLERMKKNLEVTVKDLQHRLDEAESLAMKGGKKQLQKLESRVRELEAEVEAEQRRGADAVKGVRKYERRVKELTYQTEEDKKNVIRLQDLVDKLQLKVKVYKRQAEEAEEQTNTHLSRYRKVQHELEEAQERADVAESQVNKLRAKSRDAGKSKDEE
From the text: as §1, §2
After myofibrils were prepared from dorsal meat of carp (Cyprinus carpio) according to a method by Noboru Katoh et al. {Noboru Katoh et al.: Gyruikingenseni-ATPase-no-seikagakuteki-kenkyu (Biochemical Research of Fish Myofibrillary ATPase). Journal of the Japanese Society of Fisheries Science, 43, 857-867 (1977)}, the myofibrils were dissolved in 0.5M KCl in the presence of ATP-Mg and 40 to 55% ammonium sulfate fraction was used as myosin by ammonium sulfate fractionation. […] After 5% perchloric acid was added thereto to stop the reaction and filter the product, free inorganic phosphate was subjected to colorimetric determination by phosphomolybdic acid method to calculate a logarithmic value of denaturation rate constant.

myofibrillar proteins [3] = settings: relative to sorbitol; Non-Patent Document 1; cited from earlier work
myofibrillar proteins [4] = experiment: Dissolution of myofibrillar proteins, soluble proteins in supernatant after centrifugal separation; assay type: biochemical, carp (Cyprinus carpio); settings: addition of 0.6M; FIG. 4

Structure (SMILES)	decline of rate of denaturation of myofibrillar proteins (logarithmic value of denaturation rate constant KD) (myofibrillar proteins [1])	effect of inhibiting freeze denaturation (Ca-ATPase activity), ranking (myofibrillar proteins [2])	decline of rate of denaturation of myosin (logarithmic value of denaturation rate constant KD) (myosin)	effect of stabilizing myofibrillar proteins, times sodium gluconate (myofibrillar proteins [1]; relative to sodium gluconate, worked out from own data and Non-Patent Document 1)	inhibition of heat denaturation of myofibrillar proteins, times sorbitol (myofibrillar proteins [3])	dissolution of myofibrillar proteins at 0.6M, in words (myofibrillar proteins [4])
CC(=O)[O-].[Na+] [sodium acetate]	0.3	smallest effect of inhibiting freeze denaturation	1.1	–	–	–
O=C([O-])CC(O)(CC(=O)[O-])C(=O)[O-].[Na+].[Na+].[Na+] [sodium citrate]	0.9	strongest effect of inhibiting freeze denaturation	1.7	at least 1.3 times	–	–
O=C([O-])[C@H](O)[C@@H](O)[C@H](O)[C@H](O)CO.[Na+] [sodium gluconate]	–	–	–	–	about 1.5 times	–
N[C@@H](CCC(=O)[O-])C(=O)[O-].[Na+].[Na+] [sodium glutamate]	0.9	strongest effect of inhibiting freeze denaturation	1.7	–	–	–
OC[C@@H](O)[C@@H](O)[C@H](O)[C@@H](O)CO [sorbitol]	0.6	smallest effect of inhibiting freeze denaturation, followed by sorbitol	0.7	–	–	not dissolved at all
